Results reported in patent US9765328B2, “Nuclease-resistant DNA analogues” (Arizona Board of Regents on Behalf of Arizona State …, priority 2014, dated 2017).
“Also recorded” adds a separate entry of the source. [FANA-N] = 2'-fluoro-arabino (N: the base); {32P} = 5'-32P radiolabel (phosphate); {FAM} = fluorescein (FAM) label

How the values were obtained:
SVPE = details: literature; cited from earlier work
[1] = Chemical stability assay, alkaline conditions (1 M NaOH); assay type: physicochemical; details: 65° C.
Description: The same protocol was used to monitor alkaline stability.

[2] = Chemical stability assay in pepsin-free simulated gastric fluid (SGF); details: SGF pH 1.25, 37° C.
Description: Pepsin-free simulated gastric fluid (SGF) was prepared by autoclaving a solution of NaCl (200 mg) in nanopure water (99 mL) followed by addition of 6N HCl (0.7 mL, pH 1.25). TNA (30 pmol), DNA (45 pmol), and RNA (5 pmol) were added to SGF (20 μL) and incubated for the specified time (up to 72 hours). Following the incubation, the reaction mixture was neutralized by the addition of 1N NaOH and the solutions were stored at −20° C. until the time course was complete. The volume was then reduced to 10 μL, mixed with 10 μL of loading buffer (8 M Urea, 5 mM Tris.HCl, 20 mM EDTA, pH 7.5), and the oligonucleotides were analyzed by denaturing PAGE and imaged.
We compared the chemical stability of the all-TNA strand to DNA and RNA oligonucleotides of identical length and similar sequence. […] For these experiments, pepsin-free simulated gastric fluid (SGF, pH 1.25) and 1 M NaOH were used to maintain parity with previous antisense studies^26. For the acidic regime, the TNA, DNA, and RNA samples were incubated in SGF for 72 hours at 37° C.

[3] = system: phosphodiesterase I from Crotalus adamanteus venom

2′-fluoro-arabino nucleic acid (AAAACCCACACCACCA; all [FANA-N], backbone and methylation of C not given here)
t1/2 in human serum: < 3 h
degradation in the presence of SVPE (SVPE): degrade in minutes

5′-32P-UCUCUCUCUCUC-3′ (RNA, 5' {32P}, backbone not given here)
time within which the sample is degraded in 1 M NaOH [1]: ≤ 30 min
sample degraded in SGF in the first 12 hours ([2]; first 12 hours): 85%

5′-Fam-CCCCCCCCCCCC-3′ (5' {FAM}, sugars by position and backbone not given here) [DNA]
time after which trace amounts of the sample are still visible in 1 M NaOH [1]: 12 h
stability against snake venom phosphodiesterase (SVPE) [3]: digested
strand stability in simulated gastric fluid after 72 hours (3 days) ([2]; 72 hours): stable; also recorded: remained intact

3′-tttCtCtCtCtt-2′ [size-matched TNA/DNA hybrid]
products of SVPE treatment (FIG. 2) [3]: series of shorter truncated products
